Test results: ChEMBL document CHEMBL1153832, “Identification and characterization of UK-201844, a novel inhibitor that interferes with human immunodeficiency virus type 1 gp160 processing” (Antimicrob Agents Chemother, 2007)
The source made the active and inactive calls. The rule behind the calls is not given here.

Assays:
[1] = system: Human immunodeficiency virus 1; experiment: Antiviral activity against HIV1 bearing VSV envelope infected in human HeLa CD4 cells coexpressing LTR/beta-Gal gene assessed as reduction in virus-induced beta-galactosidase reporter gene activity after 72 hrs by single-cycle infection assay; type: functional, organism-based; settings: Human immunodeficiency virus 1, HeLa
[2] = system: Human immunodeficiency virus 1; experiment: Antiviral activity against HIV1 bearing HIV1 NL4-3 envelope infected in human HeLa CD4 cells coexpressing LTR/beta-Gal gene assessed as reduction in virus-induced beta-galactosidase reporter gene activity after 72 hrs by single-cycle infection assay; type: functional, organism-based; settings: Human immunodeficiency virus 1, HeLa
[3] = system: Human immunodeficiency virus 1; experiment: Antiviral activity against HIV1 bearing HIV1 NL4-3 envelope infected in human MT2 cells assessed as inhibition of HIV-envelope packed virions at 0.12 uM after 72 hrs by virus production assay relative to control; type: functional; settings: Human immunodeficiency virus 1, MT2, 72 h
[4] = system: Human immunodeficiency virus 1; experiment: Inhibition of HIV1 NL4-3 proteins incorporation into virions transfected in HEK293 cells assessed as aberrant Env protein at 0.12 uM by Western blot; type: functional, organism-based
[5] = system: Human immunodeficiency virus 1; experiment: Antiviral activity against HIV1 bearing VSV envelope infected in human MT2 cells assessed as inhibition of VSV-envelope packed virions at 0.12 uM after 72 hrs by virus production assay relative to control; type: functional; settings: Human immunodeficiency virus 1, MT2, 72 h
[6] = system: Human immunodeficiency virus 1; experiment: Inhibition of HIV1 NL4-3 proteins incorporation into virions transfected in HEK293 cells assessed as unprocessed gp160 Env protein at 0.12 uM by Western blot; type: functional, organism-based
[7] = system: Human immunodeficiency virus 1; experiment: Antiviral activity against HIV1 NL4-3 transfected in HEK293 cells assessed as inhibition of infectious virus production at 0.12 uM; type: functional; set-up: scale not given: the % may be the effect or the level left

`Cc1c(O)cccc1C(=O)N[C@@H](CSc1ccccc1)[C@H](O)CN1C[C@H]2CCCC[C@H]2C[C@H]1C(=O)NC(C)(C)C` [NELFINAVIR] was tested, and the EC50 [1] was greater than 1 µM, the EC50 [2] was greater than 1000 nM and the inhibition in vivo at 0.12 µM [3] was 88%. The Activity [4] was “Active”, the inhibition in vivo at 0.12 µM [5] was 97% and the Activity [6] was “Active”. For the same compound, the Activity [7] was 94%.
Compound `O=C(O)C1=CC(=C(c2ccc(O)c(C(=O)O)c2)c2ccc(O)c(C(=O)O)c2)C=CC1=O` [AURINTRICARBOXYLIC ACID] has an EC50 [1] greater than 76 µM and an EC50 [2] of 76 nM.
